# From patent US9738902B2, “Modified PYR/PYL receptors activated by ligands” (priority 2013, dated 2017)
# Assays:
# PYR1 K59R F108Q S122G = target: T1, PYR1 K59R F108Q S122G (Arabidopsis thaliana, UniProt O49686, F108Q/K59R/S122G); assay: Y2H Combinatorial Mutagenesis Screen I (HAB1, X-gal); type: cell-based
# T1 construct: expressed in transfected cells; host or cells: S. cerevisiae Y190 two-hybrid reporter strain
# From the text: (§1) This screening approach yielded mutants at ligand contacting residues that alter sensitivity to specific ligands. We reasoned that receptor sensitivity could be improved by systematically constructing combinations of the best mutant variants identified in the first round of screening. To test this, we constructed mutant combinations using the strongest mutations identified for mandipropamid, benzothiadiazole, benoxacor or fludioxonil sensitivity. The mutations selected for combinatorial mutagenesis are listed in bold type in Table 1; The mutant combinations were constructed using the QuickChange Lightning Multi Site-Directed PCR Mutagenesis kit (Agilent, USA) using pBD-PYR1^K59R template DNA and mutagenic primers, essentially as previously described (Mosquna et al., 2011). The mutant combinations were sequence validated, introduced into the pACT-HAB1 Y190 reporter strain and then tested for responsiveness to a range of compound concentrations (100, 50, 25, 10, 1, 0.2, 0.1 or 0 μM each test compound). These efforts yielded double mutant receptor variants with improved sensitivity for the 4 compound/receptor pairs examined (see entries labeled “Combinatorial Mutagenesis Screen I” in Table 1).
# PYR1 K59R F108I S122G = target: T2, PYR1 K59R F108I S122G (Arabidopsis thaliana, UniProt O49686, F108I/K59R/S122G); assay: as above; type: cell-based
# T2 construct: expressed in transfected cells; host or cells: S. cerevisiae Y190 two-hybrid reporter strain
# T2 sequence (O49686 whole entry K59R/F108I/S122G): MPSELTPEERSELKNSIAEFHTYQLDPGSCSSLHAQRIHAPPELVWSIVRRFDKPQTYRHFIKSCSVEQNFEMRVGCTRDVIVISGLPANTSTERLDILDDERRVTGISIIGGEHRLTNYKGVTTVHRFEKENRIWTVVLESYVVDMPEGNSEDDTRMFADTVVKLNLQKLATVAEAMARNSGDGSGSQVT
# T2 sequence (Q9CAJ0 23-511 partner): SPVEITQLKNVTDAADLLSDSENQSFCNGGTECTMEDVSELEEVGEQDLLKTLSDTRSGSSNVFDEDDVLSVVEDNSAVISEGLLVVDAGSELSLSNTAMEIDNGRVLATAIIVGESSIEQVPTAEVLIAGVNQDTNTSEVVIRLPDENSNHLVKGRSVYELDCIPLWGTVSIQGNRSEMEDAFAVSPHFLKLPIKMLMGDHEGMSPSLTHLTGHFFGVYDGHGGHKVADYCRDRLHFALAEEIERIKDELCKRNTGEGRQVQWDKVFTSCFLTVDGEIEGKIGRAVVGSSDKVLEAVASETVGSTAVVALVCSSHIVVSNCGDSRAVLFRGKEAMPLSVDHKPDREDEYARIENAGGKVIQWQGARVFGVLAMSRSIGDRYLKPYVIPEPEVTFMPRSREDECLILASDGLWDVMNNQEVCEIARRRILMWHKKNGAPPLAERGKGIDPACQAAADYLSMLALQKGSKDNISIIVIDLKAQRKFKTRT
# From the text: as §1
# [1] = target: T3, PYR1 Y58H K59R F108A S122G (Arabidopsis thaliana, UniProt O49686, F108A/K59R/S122G/Y58H); assay: Y2H Recombination Mutagenesis (HAB1, X-gal); type: cell-based
# T3 construct: expressed in transfected cells; host or cells: S. cerevisiae Y190 pACT-HAB1
# T3 sequence (O49686 whole entry Y58H/K59R/F108A/S122G): as the sequence (O49686 whole entry K59R/F108I/S122G) above, with Y58H, I108A counted along it
# T3 sequence (Q9CAJ0 23-511 partner): as the sequence (Q9CAJ0 23-511 partner) above
# From the text: As a second approach, we used recombination-based mutagenesis to search for mutant combinations that enhance the sensitivity of PYR1^K59R,F108A,S122G to mandipropamid. Nucleotide excision and exchange technology (NExT) (Müller et al., 2005) was used to mutagenize an equal amount of PYR1^K59R,F108A,S122G template with an equal amount of template DNA that was made by pooling plasmid DNA from the NNK plasmid libraries made above for each of the 23 ligand-contacting residues in the PYR1^K59R,F108A,S122G backbone. Thus, PYR1^K59R,F108A,S122G was mutagenized with recombination-based mutagenesis using a library of pocket site mutations. An ˜200,000 member library of mutagenized clones was generated and was transformed into the MAV99 pACT-HAB1 reporter strain. Selections were conducted on plates containing 0.5 μM mandipropamid and appropriate nutrients and amino acids. To establish if strain growth was ligand dependent, the positive clones were subsequently tested for growth on selective plates lacking mandipropamid. Next, plasmids were isolated from strains showing ligand-dependent growth and the mandipropamid sensitivity of mutant receptors characterized using X-gal staining (after transformation into the into the Y190 pACT-HAB1 reporter strain). […]
# [2] = target: T4, 6×-His-GFP-PYR1^MANDI and GFP-HAB1 (Arabidopsis thaliana, UniProt O49686, F108A/F159L/K59R/S122G/V81I/Y58H); assay: co-precipitation after transient co-expression in leaves; type: in vivo, Nicotiana benthamiana; settings: 50 μM mandipropamid, 20 hours
# T4 construct: expressed in transfected cells; host or cells: Nicotiana benthamiana leaves, Agrobacterium tumefaciens GV3101 infiltration
# T4 sequence (O49686 whole entry Y58H/K59R/V81I/F108A/S122G/F159L): as the sequence (O49686 whole entry K59R/F108I/S122G) above, with Y58H, V81I, I108A, F159L counted along it
# T4 sequence (Q9CAJ0 23-511 partner): as the sequence (Q9CAJ0 23-511 partner) above
# From the text: We therefore investigated if the mandipropamid promoted interaction between PYR1^MANDI and the PP2C HAB1 could be observed using similar experiments. To conduct these experiments PYR1^MANDI was cloned as a 6×-His-GFP fusion protein in the vector pEGAD (Cutler et al., 2000). HAB1 was cloned as a GFP fusion protein in the vector pEGAD. Both constructs were transformed into Agrobacterium tumefaciens (GV3101) and utilized in transient expression experiments. The Agrobacterium strains harboring the receptor, PP2C and the silencing suppressor p19 were mixed together in ratios corresponding to 0.1, 1.0 and 0.5 final OD600 units respectively. The mixture was infiltrated into two separate N. benthamiana leaves and 2 days later the leaves were treated with either 50 μM mandipropamid or mock solutions made in water containing 0.02% Silwet L-77. 20 hours later the leaves were homogenized in liquid nitrogen, re-suspended in an extraction buffer composed of 1×TBS, 0.1% NP-40, 1 mM DTT, 10% glycerol, and 1× plant protease inhibitor cocktail (Sigma, USA) and clarified by centrifugation. […] Both PYR1^MANDI and HAB1 were expressed as GFP fusion proteins and could therefore be detected with an anti-GFP antibody. The blots were probed with an anti-GFP monoclonal primary antibody and detected using an anti-mouse IgG-HP sheep secondary antibody using ECL (Amersham, USA) development.
# [3] = test system: MDP1 and MDP2 genotypes (35S::PYR1^MANDI); assay: survival after water deprivation and re-watering; type: in vivo, Arabidopsis; settings: 1 μM mandipropamid, 11 days water deprivation
# Description: Examples 6 and 8 disclosed that mandipropamid treatments of PYR1^MANDI transgenic plants are sufficient to close guard cells (as indicated by thermal imaging) and confer drought tolerance. To investigate these responses further we performed three additional experiments using wild type Columbia, PYR1-OX and the MDP1 and MDP2 genotypes. Each experiment was conducted independently of the other at different times over the course of 8 months. Each experiment characterized 3 pots of each genotype (each pot contained 4 plants). After 2 weeks (exp. 1) or 3 weeks (Experiments 2 and 3) watering was ceased and the plants were treated with a mock or 1 μM mandipropamid solution made in water containing 0.02% Silwet L-77. These treatments were repeated every 4 (Experiment 1) or 3 days (Experiments 2 and 3). […] After 10 to 11 days of water deprivation the plants were re-watered to assess survival rates after extreme water deprivation. […] Inset in each image are the survival counts from Experiment 1 (upper numbers) and Experiments 2 and 3 (lower numbers). The survival rates have been separated because the experimental protocol for Experiment 1 differed from Experiments 2 and 3.
# Plants were grown for ˜4 weeks until initial floral meristems became obvious, after which watering was ceased and the plants were treated with either a mock or 1 μM mandipropamid solution. […]
# T1 sequence (O49686 whole entry K59R/F108Q/S122G): as the sequence (O49686 whole entry K59R/F108I/S122G) above, with I108Q counted along it
# T1 sequence (Q9CAJ0 23-511 partner): as the sequence (Q9CAJ0 23-511 partner) above
smiles,measurement,setting,value
"C#CCOc1ccc(CCNC(=O)C(OCC#C)c2ccc(Cl)cc2)cc1OC (centres unmarked) [Mandipropamid, mandipropamid]",Threshold,PYR1 K59R F108Q S122G,10 µM
same,Threshold,PYR1 K59R F108I S122G,10 µM
same,Threshold,[1],0.25 µM
same,interaction of 6×-His-GFP-PYR1^MANDI and GFP-HAB1 in planta,[2],mandipropamid-dependent physical interaction
same,"survival rates after water deprivation and re-watering, relative to wild type and PYR1-OX controls",[3],greatly improved
